Assay results reported in patent US20030053950A1, “Individualization of therapy with hyperlipidemia agents” (McGill University, priority 2001, published 2003).
Read-outs that look alike come from different tables or passages of the source. Marks after values point to notes of the source that are not given here.

What was measured:
[1] = cited from earlier work
[2] = system: 1X-Ab; assay: Competitive antigen ELISA, cross-reactivity of 1X-Ab; assay type: binding, rabbit; conditions: for % Cross-Reaction 1X-Ab: competitive antigen ELISA, 0 = absence of inhibition or inhibition no higher than 40% at 5 × 10^−3 M
Protocol: (§1) Buffers and water without additives are filtered through millipore filters and kept for 1 week. BSA, antibodies, Tween™ 20 and horse radish peroxidase conjugates are added to these buffers and water just prior to use. Urine samples are usually collected 4 hours after drinking a cup of coffee (instant or brewed with approximately 100 mg of caffeine per cup) and stored at −80° C. The urine samples are diluted 10 times with sodium phosphate buffer (620 mosm, pH 7.50) and are subsequently diluted with water to give concentrations of AAMU and 1X no higher than 3×10^−6 M in the ELISA. All the pipettings are done with an eight-channel pipette, except those of the antibody and sample solutions. Starting with the last well, 100 μL of a carbonate buffer (100 mM, pH 9.6) containing 2.5 μg mL-^1 antibodies are added to each well. After 90 min. at room temperature, the wells are washed three times with […] of TPB: isotonic sodium phosphate buffer (310 mosm, pH 7.50) containing 0.05% Tween™ 20.
(§2) After the initial wash, unoccupied sites are blocked by incubation for 90 min. at room temperature with 100 μL TBP containing 3% BSA. The wells are washed four times with 100 μL TPB. […] The microplate is gently shaken with an orbital shaker at room temperature for 3-4 hours. The wells are washed three times with 100 μL TPB containing 1% BSA and three times with water containing 0.05% Tween™ 20. To the washed plate is added 150 μL of a substrate buffer composed of citric acid (25 mM) and sodium phosphate dibasic buffer (50 mM, pH 5.0) containing 0.06% hydrogen peroxide and 0.04% o-phenylenediamine hydrochloride.
(§3) Buffers and water without additives were filtered through millipore filters and kept for 1 week. BSA, antibodies, Tween™ 20 and horse radish peroxidase conjugates were added to these buffers and water just prior to use. Urine samples were usually collected 4 hours after drinking a cup of coffee (instant or brewed with approximately 100 mg of caffeine per cup) and stored at −80° C. They were diluted 10 times with sodium phosphate buffer (620 mosm, pH 7.50) and were subsequently diluted with water to give concentrations of AAMU and 1X no higher than 3×10^−6 M in the ELISA. All the pipettings were done with an eight-channel pipette, except those of the antibody and sample solutions. Starting with the last well, 100 μL of a carbonate buffer (100 mM, pH 9.6) containing 2.5 μg mL-^1 antibodies was pipetted. After 90 min. at room temperature, the wells were washed three times with 100 μL of TPB: isotonic sodium phosphate buffer (310 mosm, pH 7.50) containing 0.05% Tween™ 20.
(§4) After the initial wash, unoccupied sites were blocked by incubation for 90 min. at room temperature with 100 μL TBP containing 3% BSA. The wells were washed four times with 100 μL TPB. […] The microplate was gently shaken with an orbital shaker at room temperature for 3-4 hours. The wells were washed three times with 100 μL with TPB containing 1% BSA and three times with water containing 0.05% Tween™ 20. To the washed plate was added 150 μL of a substrate buffer composed of citric acid (25 mM) and sodium phosphate dibasic buffer (50 mM, pH 5.0) containing 0.06% hydrogen peroxide and 0.04% o-phenylenediamine hydrochloride. After 20 min. at room temperature with shaking, the reaction was stopped with 50 μL of 2.5 N HCl.
(§5) The cross reactivities of AAMU-Ab and 1X-Ab were tested using a wide variety of caffeine metabolites and structural analogs (Table 2 below).

[3] = system: AAMU-Ab; assay: Competitive antigen ELISA, cross-reactivity of AAMU-Ab; assay type: binding, rabbit; conditions: for % Cross-Reaction AAMU-Ab: competitive antigen ELISA, 0 = absence of inhibition or inhibition no higher than 40% at 5 × 10^−3 M
Protocol: as §1, §2, §3, §4, §5

[4] = cited from earlier work; remark: listed apart in the source
[5] = cited from earlier work; remark: listed apart in the source

| Structure (SMILES) | % Cross-Reaction 1X-Ab [2] [%] | % Cross-Reaction AAMU-Ab [3] | further results |
| --- | --- | --- | --- |
| COc1ccc2c(c1)[C@]13CCCC[C@@H]1[C@H](C2)N(C)CC3 [Dextromethorphan] | – | – | mean performance ±SE ([1]; EMs (extensive metabolizers)): 95±0.5%; mean performance ±SE ([1]; PMs (poor metabolizers)): 86±6% |
| CC(=O)Nc1c(N)n(C)c(=O)n(C)c1=O [5-Acetamino-6-amino-1,3-dimethyluracil] | 0 | 0% | – |
| O=C(O)c1cccnc1 [niacin, nicotinic acid] | – | – | LDL cholesterol reduction ([4]; 1000 to 1500 mg per day): about 15%; reduction of triglyceride levels ([4]; 1000 to 1500 mg per day): up to 30%; LDL cholesterol-lowering effect ([4]; 2000 to 4000 mg per day): ~25%; increase in HDL cholesterol level ([4]; 2000 to 4000 mg per day): up to 30%; reduction of triglyceride levels ([4]; 2000 to 4000 mg per day): up to 50%; effect on lipoproteins ([4]; low dosages (<500 mg per day)): little predictable effect |
| Cn1c(=O)[nH]c(=O)c2[nH]cnc21 [3-Methyl Xanthine] | 0 | 0% | – |
| O=c1[nH]cnc2nc[nH]c12 [Hypoxanthine] | 0 | 0% | – |
| CC(=O)Nc1c(N)[nH]c(=O)[nH]c1=O [5-Acetamino-6-amino-uracil] | 0 | 0.6% | – |
| CC(=O)Nc1c(N)n(C)c(=O)[nH]c1=O [5-Acetamino-6-amino-1-methyluracil] | 0 | 100% | IC50 ([3]; read-out: concentration required for 50% inhibition in the competitive antigen ELISA, AAMU-Ab): 1.5 µM |
| O=c1cc[nH]c(=O)[nH]1 [Uracil] | 0 | 0% | – |
| Nc1nc2nc[nH]c2c(=O)[nH]1 [Guanine] | 0 | 0% | – |
| Cn1c(=O)[nH]c2[nH]c(=O)n(C)c2c1=O [1,7-Dimethyluric acid] | 0 | 0% | – |
| Cn1c(=O)[nH]c2[nH]c(=O)[nH]c2c1=O [1-Methyluric acid] | 11 | 0% | – |
| Cn1c(=O)c2c(ncn2C)n(C)c1=O [1,3,7-Trimethyl Xanthine (Caffeine), 1,3,7-Trimethyl Xanthine] | 0 | 0% | – |
| Cn1c(=O)[nH]c2nc[nH]c2c1=O [1-Methyl Xanthine (1X), 1-Methyl Xanthine] | 100 | 0% | IC50 ([2]; read-out: concentration required for 50% inhibition in the competitive antigen ELISA, 1X-Ab): 10 µM |
| O=c1[nH]c(=O)c2[nH]cnc2[nH]1 [Xanthine] | 0 | 0^a % | – |
| Cn1cnc2c1c(=O)[nH]c(=O)n2C [3,7-Dimethyl Xanthine (Theobromine), 3,7-Dimethyl Xanthine] | 0 | 0% | – |
| O=c1[nH]c(=O)c2[nH]c(=O)[nH]c2[nH]1 [Uric acid] | 0 | 0% | – |
| Cn1c(=O)[nH]c2ncn(C)c2c1=O [1,7-Dimethyl Xanthine (Paraxanthine), 1,7-Dimethyl Xanthine] | 0.5 | 0% | – |
| Cn1cnc2[nH]c(=O)[nH]c(=O)c21 [7-Methyl Xanthine] | 0 | 0% | – |
| NC(=O)c1cccnc1 [Nicotinamide] | – | – | effect on lipoproteins ([4]; doses similar to those of nicotinic acid): does not have a significant effect on lipoproteins |
| Cc1nc2[nH]c(=O)[nH]c(=O)c2[nH]1 [8-Methyl Xanthine] | 0 | 0% | – |
| Cn1c(=O)c2[nH]cnc2n(C)c1=O [1,3-Dimethyl Xanthine (Theophylline), 1,3-Dimethyl Xanthine] | 0.2 | 0% | – |
| Nc1ccc(S(=O)(=O)c2ccc(N)cc2)cc1 [dapsone] | – | – | adverse reactions to dapsone ([5]; fast acetylators): 17%; adverse reactions to dapsone ([5]; slow acetylators): 46% |
